Test results from ChEMBL document CHEMBL1127903, “Heteroaromatic Taxol Analogues: The Chemistry and Biological Activities of 3-Furyl and 3-Pyridyl Substituted Taxanes” (1994).

Columns and labels:
B16 [1] = assay: Tested for cytotoxic effect against B16 melanoma cells relative to taxol as1; type: functional, Mus musculus
[2] = biological target: Tubulin alpha chain (Sus scrofa) (UniProt P02550); assay: Tested for the effect on polymerization of the tubulin present by microtubule assembly assay relative to taxol as1; type: functional
Chain of Tubulin alpha chain (Sus scrofa) (P02550 whole entry, looked up): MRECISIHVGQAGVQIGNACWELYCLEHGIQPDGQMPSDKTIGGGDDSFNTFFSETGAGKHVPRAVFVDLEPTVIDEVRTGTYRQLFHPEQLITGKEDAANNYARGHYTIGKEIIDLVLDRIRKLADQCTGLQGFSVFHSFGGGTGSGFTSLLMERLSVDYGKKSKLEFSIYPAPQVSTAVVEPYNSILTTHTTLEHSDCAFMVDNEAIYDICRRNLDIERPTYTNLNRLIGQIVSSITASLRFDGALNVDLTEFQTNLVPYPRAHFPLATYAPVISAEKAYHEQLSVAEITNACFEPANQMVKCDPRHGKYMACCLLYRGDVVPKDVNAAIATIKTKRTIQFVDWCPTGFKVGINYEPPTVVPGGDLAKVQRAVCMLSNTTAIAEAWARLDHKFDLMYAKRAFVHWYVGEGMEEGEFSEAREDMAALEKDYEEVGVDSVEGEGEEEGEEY

B16 [3] = assay: Tested for cytotoxic effect against B16 melanoma cells; type: functional, Mus musculus
[4] = biological target: Tubulin alpha chain (Sus scrofa) (UniProt P02550); assay: Tested for the effect on polymerization of the tubulin present by microtubule assembly assay; type: functional

SMILES | ED50 ratio (B16 [1]) | ED50 ratio [2] | ED50 ratio (B16 [3]) | ED50 ratio [4]
CC(=O)O[C@H]1C(=O)[C@@]2(C)[C@H]([C@H](OC(=O)c3ccccc3)[C@]3(O)C[C@H](OC(=O)[C@H](O)[C@@H](NC(=O)c4ccccc4)c4ccncc4)C(C)=C1C3(C)C)[C@]1(OC(C)=O)CO[C@@H]1C[C@@H]2O | 1.3 | 0.4 | – | –
CC(=O)O[C@H]1C(=O)[C@@]2(C)[C@H]([C@H](OC(=O)c3ccccc3)[C@]3(O)C[C@H](OC(=O)[C@H](O)[C@@H](NC(=O)c4ccccc4)c4ccco4)C(C)=C1C3(C)C)[C@]1(OC(C)=O)CO[C@@H]1C[C@@H]2O | 0.3 | 0.9 | – | –
CC(=O)O[C@H]1C(=O)[C@@]2(C)[C@H]([C@H](OC(=O)c3ccccc3)[C@]3(O)C[C@H](OC(=O)[C@H](O)[C@@H](NC(=O)c4ccccc4)c4ccoc4)C(C)=C1C3(C)C)[C@]1(OC(C)=O)CO[C@@H]1C[C@@H]2O | 3.3 | 0.9 | – | –
CC(=O)O[C@H]1C(=O)[C@@]2(C)[C@H]([C@H](OC(=O)c3ccccc3)[C@]3(O)C[C@H](OC(=O)[C@H](O)[C@@H](NC(=O)c4ccccc4)c4ccccn4)C(C)=C1C3(C)C)[C@]1(OC(C)=O)CO[C@@H]1C[C@@H]2O | 0.8 | 0.7 | – | –
CC(=O)O[C@H]1C(=O)[C@@]2(C)[C@H]([C@H](OC(=O)c3ccccc3)[C@]3(O)C[C@H](OC(=O)[C@H](O)[C@@H](NC(=O)c4ccccc4)c4cccnc4)C(C)=C1C3(C)C)[C@]1(OC(C)=O)CO[C@@H]1C[C@@H]2O | 27 | 0.5 | – | –
CC(=O)O[C@H]1C(=O)[C@@]2(C)[C@H]([C@H](OC(=O)c3ccccc3)[C@]3(O)C[C@H](OC(=O)[C@H](O)[C@@H](NC(=O)c4ccccc4)c4ccccc4)C(C)=C1C3(C)C)[C@]1(OC(C)=O)CO[C@@H]1C[C@@H]2O [PACLITAXEL] | – | – | 1 | 1
